Common to all, as to format: cell-based
Data set [1] deals with Chlamydia trachomatis serovar L2. As to the kind of experiment: Minimum bactericidal concentration (titration of infectious ability of bacteria from treated infected cells). On the procedure: (§1) It was first sought to verify whether other molecules of the β-lactam family could induce in vitro the same abnormal and noninfectious forms of Chlamydia trachomatis as that produced in the presence of penicillin G. Titration experiments were performed on the infectious ability of bacteria from infected cells treated with different β-lactams. Cytotoxicity and minimum bactericidal concentration (MBC) were determined for each of these molecules. It was also verified whether all of these β-lactams have bactericidal action on persistent forms of Chlamydia trachomatis produced in vitro under the effect of IFN-γ.

In data set [2] the test system is Cells Infected with Chlamydia trachomatis serovar L2. Description: Cytotoxicity of β-lactams. The method, then: as §1
The subject of data set [3] is Chlamydia trachomatis L2 serovar 16S rRNA. As to the kind of experiment: 16S rRNA expression by RT-PCR. Conditions: 100 hpi. An excerpt: HeLa cells were infected with the Chlamydia trachomatis L2 serovar and treated or not treated with penicillin G at 3 hpi. At 100 hpi, the cells were collected and the RNA extracted carefully to avoid DNA contamination. Half of the isolated RNA was used for reverse transcription. The RNA and cDNA were amplified by PCR with primers for 16S (bacterial) and 18S (eukaryotic) rRNA in order to study bacterial activity and to verify cDNA quality and quantity. PCR of the RNA is used to verify the absence of DNA contamination. It also indicates the absence of contaminant in the PCR. […] Roughly 1×10^5 HeLa cells were infected and exposed or not exposed to penicillin G, as described above. At 100 hpi, total RNA were isolated using the RNeasy Plus Mini Kit (Qiagen, Hilden, Germany). The samples were treated with DNase I for 1 hour at 37° C. The enzyme was then denatured at 70° C. for 10 min. The RNA were reverse-transcribed into cDNA using random hexamer primers and AffinityScript Multiple Temperature Reverse Transcriptase (Agilent, Santa Clara, Calif., USA) and by following the manufacturer's instructions for RT-PCR. cDNA and RNA were amplified by PCR with Tag Polymerase (Invitrogen, Carlsbad, Calif., USA) in order to verify the absence of DNA contamination. The primers used to amplify 16S rRNA are: A semi-quantitative analysis of the PCR products was carried out by agarose gel electrophoresis and UV detection.

Data set [4] concerns Chlamydia trachomatis serovar L2. Description: Development and morphology of inclusions in infected HeLa cells (microscopy). Conditions: infected HeLa cells, videomicroscopy / culture for 4 days. The method, then:
HeLa cells were infected with Chlamydia trachomatis serovar L2 and treated with IFN-γ (100 ng/ml), penicillin G (100 U/ml) or gentamicin ([…]). At various times after infection (hours post-infection (hpi)), the cells were fixed and stained with an antibody against Chlamydia sp. (green in the original figure) and with Hoechst (blue in the original figure). The infected HeLa cells treated with penicillin G have abnormal bodies that grow and that are phenotypically quite different from those formed during treatment with IFN-γ. The bodies formed with penicillin G are appreciably different from “classic” persistent bodies. To examine the effects of penicillin G on cell infection with Chlamydia, the host cells were cultivated up to 70% confluence without antibiotics, and then were infected with C. trachomatis strain […]. muridarum at 1 IFU. The infections were carried out at 37° C. for 90 minutes with centrifugation, followed by a washing of extracellular bacteria. At 3 hpi, after the washings, the culture medium was replaced with medium containing either 25 μg/ml gentamicin or 1-100 IU/ml penicillin G. At regular intervals after treatment with penicillin G, the cultures were either fixed in 4% neutral buffered PFA for 30 minutes to be prepared for confocal microscopy, or collected to determine the infectivity of the progeny bacteria, according to the previously described method (Verbeke, P. et al. PLoS Pathog 2:e45, 2006). HeLa cells cultured in monolayers on slides were infected with serovar L2 with an IFU of 1, as described above (Verbeke, P. et al. PLoS Pathog 2:e45, 2006). Three hours after the infection, the medium was removed and replaced with culture medium containing 500 IU/ml (final concentration) recombinant human IFN-γ.

For data set [5], the system named is Chlamydia trachomatis inclusions. As to the kind of experiment: Fusion of lysosomes with inclusions (cathepsin D, LysoTracker, confocal microscopy). Conditions: HeLa, 24 hpi.
The mark [6] stands for this setting: minimum bactericidal concentration, read-out: MBC.
Setting [7] is: second line of the MBC cell, read-out: MBC, bound in parentheses below the value.
The mark [8] stands for this setting: printed as a concentration bound.

In brackets after ≈: the same amount, converted by molar mass. Counter-ions that a name gives are not always drawn. Like-named read-outs stand apart in the source and are kept apart here.

Turning to `CC1(C)S[C@@H]2[C@H](NC(=O)[C@H](N)c3ccc(O)cc3)C(=O)N2[C@H]1C(=O)O` [Amoxicillin trihydrate], the MBC (usually the lowest tested concentration that kills the bacteria rather than only halting them) in data set [1] (setting [6]) is 0.3 µM; in data set [1] (setting [7]), above 0.1 µM. For the same molecule, the Cytotox. in data set [2] (given as 0) came to 0.

Regarding `CC1=C(C(=O)O)N2C(=O)[C@@H](NC(=O)[C@H](N)c3ccc(O)cc3)[C@H]2SC1` [Cefadroxil], the minimal bactericidal concentration (MBC) in data set [1] (setting [6]) is 10 µM (≈ 3.63 µg/mL); in data set [1] (setting [7]), above 3 µM. In data set [2] (given as 0), the Cytotox. was found to be 0.

Consider `C=CC1=C(C(=O)O)N2C(=O)[C@@H](NC(=O)/C(=N\OCC(=O)O)c3csc(N)n3)[C@H]2SC1` [Cefixime trihydrate], for which the MBC in data set [1] (setting [6]) is 300 µM; in data set [1] (setting [7]), above 100 µM. In data set [2] (setting [8]), this molecule came in with a Cytotox. above 400 µM.

On to `Cc1onc(-c2ccccc2Cl)c1C(=O)N[C@@H]1C(=O)N2[C@@H]1SC(C)(C)[C@@H]2C(=O)O` [Cloxacillin sodium salt hydrate], for which the results for the MBC in data set [1] (setting [6]) and in data set [1] (setting [7]) were 3 µM and above 1 µM, respectively. Also, the Cytotox. in data set [2] (given as 0) was found to be 0.

As for `C[C@@H](O)[C@H]1C(=O)N2C(C(=O)O)=C(SCCN=CN)C[C@H]12` [Imipenem monohydrate], the figures for the MBC in data set [1] (setting [6]) and in data set [1] (setting [7]) were 300 µM and above 100 µM, respectively. Besides, in data set [2] (given as 0), the Cytotox. is recorded as 0.

Regarding `CC1(C)S[C@@H]2[C@H](/N=C/N3CCCCCC3)C(=O)N2[C@H]1C(=O)O` [Mecillinam], the MBC in data set [1] (setting [6]) is 3 µM (≈ 0.976 µg/mL); in data set [1] (setting [7]) it was above 1 µM. Moreover, the Cytotox. in data set [2] (given as 0) was determined as 0.

`CC1(C)S[C@@H]2[C@H](NC(=O)COc3ccccc3)C(=O)N2[C@H]1C(=O)O` [Penicillin V potassium salt]: the MBC was 0.3 µM in data set [1] (setting [6]) and above 0.1 µM in data set [1] (setting [7]). This molecule also came in with a Cytotox. in data set [2] (given as 0) of 0.

For `O=C(O)[C@H]1/C(=C/CO)O[C@@H]2CC(=O)N21` [Potassium clavulanate], the MBC was 1 µM in data set [1] (setting [6]) and above 0.3 µM in data set [1] (setting [7]). In addition, the Cytotox. in data set [2] (setting [8]) is above 50 µM.

Consider `CC1(C)[C@H](C(=O)O)N2C(=O)C[C@H]2S1(=O)=O` [Sulbactam sodium], for which the minimum bactericidal concentration (MBC) was 10 µM in data set [1] and above 3 µM in data set [1] (read-out: MBC, bound in parentheses below the value).

Take `C[C@]1(Cn2ccnn2)[C@H](C(=O)O)N2C(=O)C[C@H]2S1(=O)=O` [Tazobactam sodium salt]: the MBC in data set [1] (setting [6]) was 30 µM; in data set [1] (setting [7]) it was above 10 µM. Further, the Cytotox. in data set [2] (given as 0) was determined as 0.

With gentamicin, in data set [3], the “16S rRNA expression in infected cells” value is on record as “amplified”.

B1: IFN-γ: Recombinant human IFN-γ, a well-known inducer of persistence (protein, UniProt P01579 24-161, looked up)
Interferon gamma: QDPYVKEAENLKKYFNAGHSDVADNGTLFLGILKNWKEESDRKIMQSQIVSFYFKLFKNFKDDQSIQKSVETIKEDMNVKFFNSNKKKRDDFEKLTNYSVTDLNVQRKAIHELIQVMAELSPAAKTGKRKRSQMLFRG
On to B1, for which the “growth of the bacterial inclusions” value in data set [4] is “remains constant”. Besides, in data set [3], the “16S rRNA expression in infected cells” value is given as “amplified”. In addition, the “localization of cathepsin D in inclusions” value in data set [5] is “excluded from normal and persistent inclusions”.

The values above are taken from patent US20130053336A1, “TREATMENT OF CHLAMYDIACEAE INFECTIONS BY MEANS OF BETA-LACTAMS” (priority 2010, published 2013).
